Patent publication US20260234135A1, “CRYSTALLINE FORMS OR SALTS OF A DEUTERATED COMPOUND” (ALEBUND PHARMACEUTICALS (HONG KONG) LIMITED, priority 2023, published 2026)
Where two headings read alike, the source gives them in different places.

Assays:
[1] = for Form or purity change after storage: 60° C./close and 40° C./75% RH/open for 2/4/8 weeks
[2] = Hygroscopicity evaluation by DVS at 25° C.; format: physicochemical
Description: DVS was measured via a SMS (Surface Measurement Systems) DVS Intrinsic. The relative humidity at 25° C. were calibrated against deliquescence point of LiCl, Mg(NO3)2 and KCl.

In the case of `[2H]C([2H])(Cc1nc(-c2ccccc2)oc1C)Oc1ccc(C[C@H](OC)C(=O)O)c2sccc12` [free acid Form E], the “Area (%) of impurity peak RRT 0.88” value ([1]; 40° C./75% RH, 2 weeks) is reported as 0.33%, the “Area (%) of impurity peak RRT 1.14” value ([1]; 40° C./75% RH, 2 weeks) is reported as 0.15% and the “Area (%) of impurity peak RRT 1.28” value ([1]; 40° C./75% RH, 2 weeks) is reported as 0.18%. For the same molecule, the “Area (%) of impurity peak RRT 1.33” value ([1]; 40° C./75% RH, 2 weeks) was 0.25%, the “Area (%) of impurity peak RRT 0.88” value ([1]; 40° C./75% RH, 4 weeks) was 0.35% and the “Area (%) of impurity peak RRT 1.14” value ([1]; 40° C./75% RH, 4 weeks) was 0.15%. For the same molecule, the “Area (%) of impurity peak RRT 1.28” value ([1]; 40° C./75% RH, 4 weeks) was 0.23%, the “Area (%) of impurity peak RRT 1.33” value ([1]; 40° C./75% RH, 4 weeks) was 0.27% and the “Area (%) of impurity peak RRT 0.88” value ([1]; 40° C./75% RH, 8 weeks) was 0.32%. The “Area (%) of impurity peak RRT 1.14” value ([1]; 40° C./75% RH, 8 weeks) was 0.13%, the “Area (%) of impurity peak RRT 1.28” value ([1]; 40° C./75% RH, 8 weeks) was 0.20% and the “Area (%) of impurity peak RRT 1.33” value ([1]; 40° C./75% RH, 8 weeks) was 0.27%. For the same molecule, the “HPLC Purity (area %), main peak RRT 1.00” value ([1]; 40° C./75% RH/open, 2 weeks) was 99.08 area %, the “HPLC Reults of initial (%)” value ([1]; 40° C./75% RH/open, 2 weeks) was 100.07% and the “HPLC Purity (area %), main peak RRT 1.00” value ([1]; 40° C./75% RH/open, 4 weeks) was 99.00 area %. The “HPLC Reults of initial (%)” value ([1]; 40° C./75% RH/open, 4 weeks) was 99.99%, the “HPLC Purity (area %), main peak RRT 1.00” value ([1]; 40° C./75% RH/open, 8 weeks) was 99.03 area % and the “HPLC Reults of initial (%)” value ([1]; 40° C./75% RH/open, 8 weeks) was 100.02%. The “Area (%) of impurity peak RRT 0.88” value ([1]; 60° C., 2 weeks) was 0.32%, the “Area (%) of impurity peak RRT 1.14” value ([1]; 60° C., 2 weeks) was 0.16% and the “Area (%) of impurity peak RRT 1.28” value ([1]; 60° C., 2 weeks) was 0.23%. The “Area (%) of impurity peak RRT 1.33” value ([1]; 60° C., 2 weeks) was 0.25%, the “Area (%) of impurity peak RRT 0.88” value ([1]; 60° C., 4 weeks) was 0.38% and the “Area (%) of impurity peak RRT 1.14” value ([1]; 60° C., 4 weeks) was 0.17%. For the same molecule, the “Area (%) of impurity peak RRT 1.28” value ([1]; 60° C., 4 weeks) was 0.26%, the “Area (%) of impurity peak RRT 1.33” value ([1]; 60° C., 4 weeks) was 0.29% and the “Area (%) of impurity peak RRT 0.88” value ([1]; 60° C., 8 weeks) was 0.34%. For the same molecule, the “Area (%) of impurity peak RRT 1.14” value ([1]; 60° C., 8 weeks) was 0.14%, the “Area (%) of impurity peak RRT 1.28” value ([1]; 60° C., 8 weeks) was 0.23% and the “Area (%) of impurity peak RRT 1.33” value ([1]; 60° C., 8 weeks) was 0.27%. The “Form or purity change after storage” value [1] was “No form or purity decrease”, the “HPLC Purity (area %), main peak RRT 1.00” value ([1]; 60° C./close, 2 weeks) was 99.04 area % and the “HPLC Reults of initial (%)” value ([1]; 60° C./close, 2 weeks) was 100.03%. For the same molecule, the “HPLC Purity (area %), main peak RRT 1.00” value ([1]; 60° C./close, 4 weeks) was 98.89 area %, the “HPLC Reults of initial (%)” value ([1]; 60° C./close, 4 weeks) was 99.88% and the “HPLC Purity (area %), main peak RRT 1.00” value ([1]; 60° C./close, 8 weeks) was 98.96 area %. For the same molecule, the “HPLC Reults of initial (%)” value ([1]; 60° C./close, 8 weeks) was 99.95%, the “Area (%) of impurity peak RRT 0.88” value ([1]; Initial) was 0.31% and the “Area (%) of impurity peak RRT 1.14” value ([1]; Initial) was 0.16%. The “Area (%) of impurity peak RRT 1.28” value ([1]; Initial) was 0.26%, the “Area (%) of impurity peak RRT 1.33” value ([1]; Initial) was 0.25% and the “HPLC Purity (area %), main peak RRT 1.00” value ([1]; Initial) was 99.01 area %.
In the case of `N=C(N)NCCCC(N)C(=O)O.[2H]C([2H])(Cc1nc(-c2ccccc2)oc1C)Oc1ccc(C[C@H](OC)C(=O)O)c2sccc12` [arginine salt Form A], the Hygroscopicity ([2]; DVS, 25° C.) is reported as “slightly hygroscopicity”, the “Water uptake up to 80% RH” value ([2]; DVS, 25° C.) is reported as 0.5% and the “Form change after DVS test” value ([2]; XRPD after DVS) is reported as “No form change”. For the same molecule, the “Area (%) of impurity peak RRT 0.88” value ([1]; 40° C./75% RH, 2 weeks) was 0.14%, the “Area (%) of impurity peak RRT 1.14” value ([1]; 40° C./75% RH, 2 weeks) was 0.06% and the “Area (%) of impurity peak RRT 1.34” value ([1]; 40° C./75% RH, 2 weeks) was 0.22%. The “Area (%) of impurity peak RRT 0.88” value ([1]; 40° C./75% RH, 4 weeks) was 0.11%, the “Area (%) of impurity peak RRT 1.34” value ([1]; 40° C./75% RH, 4 weeks) was 0.19% and the “Area (%) of impurity peak RRT 0.88” value ([1]; 40° C./75% RH, 8 weeks) was 0.07%. For the same molecule, the “Area (%) of impurity peak RRT 1.34” value ([1]; 40° C./75% RH, 8 weeks) was 0.19%, the “HPLC Purity (area %), main peak RRT 1.00” value ([1]; 40° C./75% RH/open, 2 weeks) was 99.59 area % and the “HPLC Reults of initial (%)” value ([1]; 40° C./75% RH/open, 2 weeks) was 99.87%. The “HPLC Purity (area %), main peak RRT 1.00” value ([1]; 40° C./75% RH/open, 4 weeks) was 99.70 area %, the “HPLC Reults of initial (%)” value ([1]; 40° C./75% RH/open, 4 weeks) was 99.98% and the “HPLC Purity (area %), main peak RRT 1.00” value ([1]; 40° C./75% RH/open, 8 weeks) was 99.74 area %. For the same molecule, the “HPLC Reults of initial (%)” value ([1]; 40° C./75% RH/open, 8 weeks) was 100.02%, the “Area (%) of impurity peak RRT 0.88” value ([1]; 60° C., 2 weeks) was 0.06% and the “Area (%) of impurity peak RRT 1.34” value ([1]; 60° C., 2 weeks) was 0.18%. For the same molecule, the “Area (%) of impurity peak RRT 0.88” value ([1]; 60° C., 4 weeks) was 0.09%, the “Area (%) of impurity peak RRT 1.34” value ([1]; 60° C., 4 weeks) was 0.18% and the “Area (%) of impurity peak RRT 0.81” value ([1]; 60° C., 8 weeks) was 0.05%. For the same molecule, the “Area (%) of impurity peak RRT 0.88” value ([1]; 60° C., 8 weeks) was 0.06%, the “Area (%) of impurity peak RRT 1.34” value ([1]; 60° C., 8 weeks) was 0.18% and the “Form or purity change after storage” value [1] was “No form or purity decrease”. For the same molecule, the “HPLC Purity (area %), main peak RRT 1.00” value ([1]; 60° C./close, 2 weeks) was 99.76 area %, the “HPLC Reults of initial (%)” value ([1]; 60° C./close, 2 weeks) was 100.04% and the “HPLC Purity (area %), main peak RRT 1.00” value ([1]; 60° C./close, 4 weeks) was 99.73 area %. For the same molecule, the “HPLC Reults of initial (%)” value ([1]; 60° C./close, 4 weeks) was 100.01%, the “HPLC Purity (area %), main peak RRT 1.00” value ([1]; 60° C./close, 8 weeks) was 99.71 area % and the “HPLC Reults of initial (%)” value ([1]; 60° C./close, 8 weeks) was 99.99%. The “Area (%) of impurity peak RRT 0.88” value ([1]; Initial) was 0.07%, the “Area (%) of impurity peak RRT 1.34” value ([1]; Initial) was 0.20% and the “HPLC Purity (area %), main peak RRT 1.00” value ([1]; Initial) was 99.72 area %.
